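These data come from cells grown in 96-well plates and exposed to compound for 48 hours at five concentrations. GI50 is the concentration that inhibits growth by half.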 Calls of active or inactive are those of the source. Cut-off read from the data, not from the text of the source: active = GI50 up to about 1.1 µM and inactive = higher.
Tests used:
Assay in all cases: NCI tumour cell line growth inhibition, 48 h
SK-MEL-28 = test system: SK-MEL-28
RPMI-8226 = test system: RPMI-8226
SF-539 = test system: SF-539
MOLT-4 = test system: MOLT-4
UACC-257 = test system: UACC-257
PC-3 = test system: PC-3
LOX IMVI = test system: LOX IMVI
SR = test system: SR
IGROV-1 = test system: IGROV-1
KM12 = test system: KM12
SK-MEL-2 = test system: SK-MEL-2
NCI-H226 = test system: NCI-H226
K562 = test system: K562
NCI-H460 = test system: NCI-H460
Malme-3M = test system: Malme-3M
OVCAR-8 = test system: OVCAR-8
SNB-19 = test system: SNB-19
Hs-578T = test system: Hs-578T
SW-620 = test system: SW-620
MDA-N = test system: MDA-N

| SMILES | GI50 (SK-MEL-28) | GI50 (RPMI-8226) | GI50 (SF-539) | GI50 (MOLT-4) | GI50 (UACC-257) | GI50 (PC-3) | GI50 (LOX IMVI) | GI50 (SR) | GI50 (IGROV-1) | GI50 (KM12) | GI50 (SK-MEL-2) | GI50 (NCI-H226) | GI50 (K562) | GI50 (NCI-H460) | GI50 (Malme-3M) | GI50 (OVCAR-8) | GI50 (SNB-19) | GI50 (Hs-578T) | GI50 (SW-620) | GI50 (MDA-N) |
| --- | --- | --- | --- | --- | --- | --- | --- | --- | --- | --- | --- | --- | --- | --- | --- | --- | --- | --- | --- | --- |
| Cc1cccc(C)c1NC(=O)/C(Cl)=C(/Cl)C(=O)O | 18.3 µM (inactive) | 11 µM (inactive) | 23.1 µM (inactive) | 3.99 µM (inactive) | 16.1 µM (inactive) | 19.8 µM (inactive) | 18.1 µM (inactive) | 8.41 µM (inactive) | 20.8 µM (inactive) | 15.3 µM (inactive) | 16.7 µM (inactive) | 16.4 µM (inactive) | 3.23 µM (inactive) | 30.8 µM (inactive) | 14.7 µM (inactive) | 20.2 µM (inactive) | 24.5 µM (inactive) | 33.3 µM (inactive) | 7.74 µM (inactive) | 19.2 µM (inactive) |
| Cc1ccc(Nc2cc(=O)[nH]c(=O)[nH]2)cc1CS | > 100 µM (inactive) | > 100 µM (inactive) | > 100 µM (inactive) | > 100 µM (inactive) | > 100 µM (inactive) | > 100 µM (inactive) | > 100 µM (inactive) | > 100 µM (inactive) | > 100 µM (inactive) | > 100 µM (inactive) | > 100 µM (inactive) | > 100 µM (inactive) | > 100 µM (inactive) | > 100 µM (inactive) | > 100 µM (inactive) | > 100 µM (inactive) | > 100 µM (inactive) | > 100 µM (inactive) | > 100 µM (inactive) | > 100 µM (inactive) |
| COC(=O)C1OC(SCCN)C(O)C(O)C1O (stereo not given) | > 100 µM (inactive) | > 100 µM (inactive) | > 100 µM (inactive) | > 100 µM (inactive) | > 100 µM (inactive) | > 100 µM (inactive) | > 100 µM (inactive) | > 100 µM (inactive) | > 100 µM (inactive) | > 100 µM (inactive) | > 100 µM (inactive) | > 100 µM (inactive) | > 100 µM (inactive) | > 100 µM (inactive) | > 100 µM (inactive) | > 100 µM (inactive) | > 100 µM (inactive) | > 100 µM (inactive) | > 100 µM (inactive) | > 100 µM (inactive) |
| NCCCNCCCCN1CCOC1=O | > 100 µM (inactive) | > 100 µM (inactive) | > 100 µM (inactive) | > 100 µM (inactive) | > 100 µM (inactive) | > 100 µM (inactive) | > 100 µM (inactive) | > 100 µM (inactive) | > 100 µM (inactive) | > 100 µM (inactive) | > 100 µM (inactive) | > 100 µM (inactive) | > 100 µM (inactive) | > 100 µM (inactive) | > 100 µM (inactive) | > 100 µM (inactive) | > 100 µM (inactive) | > 100 µM (inactive) | > 100 µM (inactive) | > 100 µM (inactive) |
| COc1ccc2c(c1)C(=O)C(=O)c1cc(O)c(OC)c(OC)c1-2 | 0.845 µM (active) | 1.09 µM (active) | 1.85 µM (inactive) | 0.114 µM (active) | 0.91 µM (active) | 1.07 µM (active) | 0.883 µM (active) | 0.818 µM (active) | 0.791 µM (active) | 0.979 µM (active) | 0.861 µM (active) | 5.64 µM (inactive) | 0.838 µM (active) | 3.02 µM (inactive) | 0.832 µM (active) | 0.875 µM (active) | 1.01 µM (active) | 1.07 µM (active) | 1.2 µM (inactive) | 0.697 µM (active) |
| N=C(N)NS(=O)(=O)c1ccc(NC(=O)c2cccc3c(NNc4ccc(S(=O)(=O)N=C(N)N)cc4)c4ccccc4nc23)cc1 | 37.2 µM (inactive) | 37.9 µM (inactive) | > 100 µM (inactive) | 30.8 µM (inactive) | > 100 µM (inactive) | 61 µM (inactive) | 34.8 µM (inactive) | 32.6 µM (inactive) | 51.5 µM (inactive) | > 100 µM (inactive) | 16.9 µM (inactive) | 91.8 µM (inactive) | 28.1 µM (inactive) | 32.7 µM (inactive) | 38.2 µM (inactive) | 53.5 µM (inactive) | 76.7 µM (inactive) | 54.7 µM (inactive) | 48.9 µM (inactive) | 91.4 µM (inactive) |
| Cc1cccc(C(C)(C)C)c1NC(=O)C(C#N)C1=C(Cl)C(=O)c2ccccc2C1=O (stereo not given) | 16.9 µM (inactive) | 8.83 µM (inactive) | 18.1 µM (inactive) | 2.74 µM (inactive) | 15.6 µM (inactive) | 13.5 µM (inactive) | 16.3 µM (inactive) | 3.38 µM (inactive) | 18.4 µM (inactive) | 16.3 µM (inactive) | 16.1 µM (inactive) | 9.66 µM (inactive) | 3.05 µM (inactive) | 19.2 µM (inactive) | 17.2 µM (inactive) | 18.2 µM (inactive) | 18.3 µM (inactive) | 21.1 µM (inactive) | 14.5 µM (inactive) | 14.4 µM (inactive) |
| O=C(/C=C(\Nc1ccccc1O)c1ccc(Br)cc1)C(Cl)(Cl)Cl | 11 µM (inactive) | 1.79 µM (inactive) | 12.7 µM (inactive) | 13.9 µM (inactive) | 7.26 µM (inactive) | 2.47 µM (inactive) | 17.9 µM (inactive) | 13.7 µM (inactive) | 10.3 µM (inactive) | 2.75 µM (inactive) | 8.04 µM (inactive) | 12.1 µM (inactive) | 14.2 µM (inactive) | 3.21 µM (inactive) | 15.2 µM (inactive) | 12.6 µM (inactive) | 6.87 µM (inactive) | 3.1 µM (inactive) | 3.06 µM (inactive) | 4.69 µM (inactive) |
| COC(=O)c1ccc(/C=C/c2cc(O)ccc2O)cc1 | 13.9 µM (inactive) | 0.333 µM (active) | 1.6 µM (inactive) | 0.255 µM (active) | 6.27 µM (inactive) | 1.48 µM (inactive) | 2.24 µM (inactive) | 0.787 µM (active) | 2.62 µM (inactive) | 3.81 µM (inactive) | 14.3 µM (inactive) | 12.6 µM (inactive) | 1.04 µM (active) | 8.45 µM (inactive) | 0.923 µM (active) | 2.67 µM (inactive) | 33.3 µM (inactive) | 4.95 µM (inactive) | 3.69 µM (inactive) | 3.44 µM (inactive) |
| O=C1c2c(Br)sc(Br)c2[C@H]2NC(=S)O[C@@H]12 | 13.2 µM (inactive) | 7.38 µM (inactive) | 17.9 µM (inactive) | 1.32 µM (inactive) | 16.8 µM (inactive) | 14.5 µM (inactive) | 13.9 µM (inactive) | 2.41 µM (inactive) | 16.7 µM (inactive) | 17.9 µM (inactive) | 17.4 µM (inactive) | 20.7 µM (inactive) | 2.98 µM (inactive) | 18.6 µM (inactive) | 15.7 µM (inactive) | 9.82 µM (inactive) | 21.7 µM (inactive) | 23.2 µM (inactive) | 3.18 µM (inactive) | 16 µM (inactive) |
| COc1cccc(-c2cc(O)c3cc(Cl)cnc3n2)c1 | 0.0918 µM (active) | 0.0378 µM (active) | 0.0348 µM (active) | 0.0991 µM (active) | 6.92 µM (inactive) | 0.065 µM (active) | 0.0687 µM (active) | 0.0292 µM (active) | 0.228 µM (active) | 0.0887 µM (active) | 0.757 µM (active) | 0.08 µM (active) | 0.0419 µM (active) | 0.0783 µM (active) | 2.25 µM (inactive) | 0.158 µM (active) | 0.122 µM (active) | 0.0743 µM (active) | 0.0488 µM (active) | 0.0144 µM (active) |
| NC(Cc1c[nH]c(I)n1)C(=O)O (stereo not given) | 74.1 µM (inactive) | > 100 µM (inactive) | 37.4 µM (inactive) | > 100 µM (inactive) | 41.1 µM (inactive) | > 100 µM (inactive) | > 100 µM (inactive) | 34.4 µM (inactive) | 67 µM (inactive) | > 100 µM (inactive) | > 100 µM (inactive) | > 100 µM (inactive) | 53.6 µM (inactive) | > 100 µM (inactive) | 17.7 µM (inactive) | 81.5 µM (inactive) | > 100 µM (inactive) | 23.8 µM (inactive) | 30 µM (inactive) | > 100 µM (inactive) |
| O=C1CSC(c2ccccc2)N1c1nc2cc3sc(N4C(=O)CSC4c4ccccc4)nc3cc2s1 (stereo not given) | > 100 µM (inactive) | 71.1 µM (inactive) | 3.03 µM (inactive) | 5.86 µM (inactive) | 85.1 µM (inactive) | 48.4 µM (inactive) | 25.4 µM (inactive) | 16.5 µM (inactive) | 23.4 µM (inactive) | 17.5 µM (inactive) | 63.7 µM (inactive) | 15.8 µM (inactive) | 47.4 µM (inactive) | 3.1 µM (inactive) | > 87.7 µM (inactive) | 70.8 µM (inactive) | 78.3 µM (inactive) | > 51.2 µM (inactive) | 9.95 µM (inactive) | > 64.4 µM (inactive) |
| COc1ccc(/C=C/C2=NN(c3cccc(S(=O)(=O)O)c3)C3(C2)SCC(=O)N3c2nc3ccccc3s2)cc1 (stereo not given) | > 100 µM (inactive) | 22.8 µM (inactive) | 33.2 µM (inactive) | 17.5 µM (inactive) | 83.8 µM (inactive) | 68.7 µM (inactive) | 33.1 µM (inactive) | 19.5 µM (inactive) | 30.8 µM (inactive) | > 100 µM (inactive) | 95.5 µM (inactive) | 24.6 µM (inactive) | 31.3 µM (inactive) | 50.7 µM (inactive) | > 100 µM (inactive) | 60.7 µM (inactive) | 97.1 µM (inactive) | > 100 µM (inactive) | > 100 µM (inactive) | > 100 µM (inactive) |
